A short description of data set [1]: Maximum solubility in non-volatile part of vehicle gel and in reconstituted sebum. Type of data set: physicochemical. The note with it: for maximum solubility, TA reconstituted liquid sebum (22 H) / maximum solubility, TA reconstituted liquid sebum (extemporaneous): liquid fraction of the reconstituted sebum; for maximum solubility, TA reconstituted liquid sebum (22 H) / maximum solubility, TA non-volatile (22 H) / maximum solubility, Liquid sebum reconstituted at 32° C. (22 H): 22 H agitation; for maximum solubility, TA non-volatile (22 H): non-volatile part of the Composition A vehicle gel. From the text:
In the case of active principles in dispersed form, these can dissolve after application, either in the sebum or in the non-volatile part of the formulation. […] (22 H agitation)

Data set [2] can be described thus: Maximum solubility of Isopropylcarbonate Benzoyl Peroxide in oils. Type of data set: physicochemical. As to the method: First, the maximum solubilities of Isopropylcarbonate Benzoyl Peroxide in various oils was assessed in the following table.
The nature of data set [3]: Compatibility of additives (keratolytic agents, opacifying agents) with 1% CD08467 gel based composition 0347.1000. The format is physicochemical. The note with it: for Notes (reason of incompatibility): Table 6, keratolytic additive in gel 0347.1000; for compatibility of keratolytic agents: summary of Table 6. As to the method: For this study, the following gel based composition was tested:
The following keratolytic agents were tested with the gel based composition indicated above:
The goal of using an opacifier is to mainly “mask” the evolution of the orange-brown color that appears over time either or the orange color present from T0. […] The chemical and physical stabilities were evaluated over 3 months at RT and 40° C.
The following opacifying agents were tested with the gel based composition indicated above: […]

A short description of data set [4]: Compatibility with oils: chemical and physical stability of 2.5% formulations, 3 months RT and 40° C. Type of data set: physicochemical. As to the method:
To assess the possibility of a cream formulation that restores the cutaneous barrier, the compatibility of Isopropylcarbonate Benzoyl Peroxide with oils was assessed.
Further the chemical and physical stabilities of the formulations containing 2.5% Isopropylcarbonate Benzoyl Peroxide with various oils were assessed after storage at 3 months RT and 40° C. The value of 2.5% was chosen in order to allow for comparisons to an equivalent formulation containing 2.5% benzoyl peroxide instead of 2.5% Isopropylcarbonate Benzoyl Peroxide.

The conditions of data set [5]: series with and without TiO2.
[6] abbreviates: in COS SILKFLO ® 366 (POLYDECENE, Non-polar).
Where [7] appears, read: in ISOSTEARYL ISOSTEARATE (Average polarity).
[8] abbreviates: in PARLEAM ® (HYDROGENATED POLYISOBUTENE, Non-polar).
The mark [9] stands for this setting: in PRIMOL ™ 352 (MINERAL OIL, Non-polar).
Where [10] appears, read: in SILICON FLUID 20CST (POLYDIMETHYLSILOXANE, Average polarity).
[11] abbreviates: in ST-CYCLOMETHICONE 5 NF (Average polarity).

Take `O=C(OOC(=O)c1ccccc1)c1ccccc1` [BPO, benzoyl peroxide]: in data set [1], the “maximum solubility, TA reconstituted liquid sebum (22 H)” value is 1.4%; the “maximum solubility, TA reconstituted liquid sebum (extemporaneous)” value is reported as 1.1%; the “maximum solubility, TA non-volatile (22 H)” value was 0.35%; the “maximum solubility, Liquid sebum reconstituted at 32° C. (22 H)” value is given as 1.8%.
Turning to `CC(C)OC(=O)Oc1ccccc1C(=O)OOC(=O)c1ccccc1` [CD08467], the “% Max. Solution” value is listed as 0.1498% in data set [2] (setting [6]); 0.8679% in data set [2] (setting [7]); 0.1862% in data set [2] (setting [8]); 0.1867% in data set [2] (setting [9]); 0.0735% in data set [2] (setting [10]); 0.1781% in data set [2] (in SQUALANE PE (Non-polar)). Also, the figures for the “% Max. Solution” value in data set [2] (setting [11]), in data set [2] (in WATER (Polar)) and in data set [2] (meadowfoam seed oil) were 0.1253%, “Not measurable” and 1.2925%, respectively. Moreover, the “% max sol. visual” value in data set [2] (setting [6]) was 0.18%; in data set [2] (setting [7]), 1.39%; in data set [2] (setting [8]) it was 0.50%; in data set [2] (setting [9]), 0.41%; in data set [2] (setting [10]) it was 0.18%; in data set [2] (in SQUALANE PE (Non-polar)), 0.18%. Further, the entries for the “% max sol. visual” value in data set [2] (setting [11]) and in data set [2] (meadowfoam seed oil) were 0.33% and 1.96%, respectively. The “maximum solubility, TA reconstituted liquid sebum (22 H)” value in data set [1] is 1.6%. In addition, in data set [1], the “maximum solubility, TA reconstituted liquid sebum (extemporaneous)” value amounted to 0.25%. Moreover, in data set [1], the “maximum solubility, TA non-volatile (22 H)” value came to 0.25%. Besides, in data set [1], the “maximum solubility, Liquid sebum reconstituted at 32° C. (22 H)” value came to 1.6%.
For `O=C(O)CO` [GLYCOLIC ACID], in data set [3], the “Notes (reason of incompatibility)” value is “Fall in value 1 m” and the “compatibility of keratolytic agents” value was “compatible”.
Turning to `NCCCC[C@H](N)C(=O)O` [L-LYSINE], the “Notes (reason of incompatibility)” value in data set [3] was “Strong coloration”.
Turning to `CC(O)C(=O)O` (centres unmarked) [LACTIC ACID], in data set [3], the “compatibility of keratolytic agents” value is listed as “compatible”.
The same measure, in the same setting: then `O=C(O)CC(O)C(=O)O` (centres unmarked) [MALIC ACID], with “compatible”; and `O=P(O)(O)O[C@H]1[C@H](OP(=O)(O)O)[C@@H](OP(=O)(O)O)[C@H](OP(=O)(O)O)[C@@H](OP(=O)(O)O)[C@H]1OP(=O)(O)O` [PHYTIC ACID], with “compatible”.
For `O=C(O)c1ccccc1O` [SALICYLIC ACID], the “Notes (reason of incompatibility)” value in data set [3] is “Fall in value 1 m”.
For the compound `CC(C)CCCC(C)CCCC(C)CCCCC(C)CCCC(C)CCCC(C)C` (centres unmarked) [SQUALANE PE], the “compatibility of Isopropylcarbonate Benzoyl Peroxide with oils” value in data set [4] (Table 8) is on record as “compatible”.
With `C[Si]1(C)O[Si](C)(C)O[Si](C)(C)O[Si](C)(C)O[Si](C)(C)O1` [ST-CYCLOMETHICONE 5 NF, CYCLOMETHICONE 5], in data set [4] (Table 8, comparison with equivalent 2.5% benzoyl peroxide formulation), the Notes entry was “Intense orange coloration”.
Turning to `O=C([O-])CN(CCN(CC(=O)[O-])CC(=O)O)CC(=O)O.[Na+].[Na+]` [disodium EDTA, disodium ethylenediaminetetraacetic acid (EDTA)], the “effect of component on stability of the formulation” value in data set [5] is “counter the chemically instability”.

These data come from patent US20220023250A1, “ISOPROPYLCARBONATE BENZOYL PEROXIDE COMPOSITIONS AND METHODS OF USE” (Galderma Holding SA, priority 2019, published 2022).
